{"source": "ChEMBL document CHEMBL4387741", "about": "“Optimization of novel reversible Bruton's tyrosine kinase inhibitors identified using Tethering-fragment-based screens” (Bioorg Med Chem, 2019)", "key": {"[1]": {"system": "Tyrosine-protein kinase ABL1 (Homo sapiens), P00519 [Y253F]", "assay": "Inhibition of human phosphorylated ABL1 Y253F mutant (S229 to K512 residues) expressed in mammalian expression system at 1 uM by Kinomescan method relative to control"}, "[2]": {"biological_target": "Serine/threonine-protein kinase BRSK2 (Homo sapiens) (UniProt Q8IWQ3)", "assay": "Inhibition of wild-type human full length BRSK2 (M1 to L674 residues) expressed in bacterial expression system at 1 uM by Kinomescan method relative to control"}, "[3]": {"biological_target": "Cyclin-dependent kinase 9 (Homo sapiens) (UniProt P50750)", "assay": "Inhibition of wild-type human full length CDK9 (M1 to F372 residues) expressed in bacterial expression system at 1 uM by Kinomescan method relative to control"}, "[4]": {"biological_target": "Casein kinase I isoform delta (Homo sapiens) (UniProt P48730)", "assay": "Inhibition of wild-type human full length CSNK1D (M1 to K409 residues) expressed in bacterial expression system at 1 uM by Kinomescan method relative to control"}, "[5]": {"biological_target": "Receptor tyrosine-protein kinase erbB-3 (Homo sapiens) (UniProt P21860)", "sequence (P21860 whole entry, the tested form may be a part)": "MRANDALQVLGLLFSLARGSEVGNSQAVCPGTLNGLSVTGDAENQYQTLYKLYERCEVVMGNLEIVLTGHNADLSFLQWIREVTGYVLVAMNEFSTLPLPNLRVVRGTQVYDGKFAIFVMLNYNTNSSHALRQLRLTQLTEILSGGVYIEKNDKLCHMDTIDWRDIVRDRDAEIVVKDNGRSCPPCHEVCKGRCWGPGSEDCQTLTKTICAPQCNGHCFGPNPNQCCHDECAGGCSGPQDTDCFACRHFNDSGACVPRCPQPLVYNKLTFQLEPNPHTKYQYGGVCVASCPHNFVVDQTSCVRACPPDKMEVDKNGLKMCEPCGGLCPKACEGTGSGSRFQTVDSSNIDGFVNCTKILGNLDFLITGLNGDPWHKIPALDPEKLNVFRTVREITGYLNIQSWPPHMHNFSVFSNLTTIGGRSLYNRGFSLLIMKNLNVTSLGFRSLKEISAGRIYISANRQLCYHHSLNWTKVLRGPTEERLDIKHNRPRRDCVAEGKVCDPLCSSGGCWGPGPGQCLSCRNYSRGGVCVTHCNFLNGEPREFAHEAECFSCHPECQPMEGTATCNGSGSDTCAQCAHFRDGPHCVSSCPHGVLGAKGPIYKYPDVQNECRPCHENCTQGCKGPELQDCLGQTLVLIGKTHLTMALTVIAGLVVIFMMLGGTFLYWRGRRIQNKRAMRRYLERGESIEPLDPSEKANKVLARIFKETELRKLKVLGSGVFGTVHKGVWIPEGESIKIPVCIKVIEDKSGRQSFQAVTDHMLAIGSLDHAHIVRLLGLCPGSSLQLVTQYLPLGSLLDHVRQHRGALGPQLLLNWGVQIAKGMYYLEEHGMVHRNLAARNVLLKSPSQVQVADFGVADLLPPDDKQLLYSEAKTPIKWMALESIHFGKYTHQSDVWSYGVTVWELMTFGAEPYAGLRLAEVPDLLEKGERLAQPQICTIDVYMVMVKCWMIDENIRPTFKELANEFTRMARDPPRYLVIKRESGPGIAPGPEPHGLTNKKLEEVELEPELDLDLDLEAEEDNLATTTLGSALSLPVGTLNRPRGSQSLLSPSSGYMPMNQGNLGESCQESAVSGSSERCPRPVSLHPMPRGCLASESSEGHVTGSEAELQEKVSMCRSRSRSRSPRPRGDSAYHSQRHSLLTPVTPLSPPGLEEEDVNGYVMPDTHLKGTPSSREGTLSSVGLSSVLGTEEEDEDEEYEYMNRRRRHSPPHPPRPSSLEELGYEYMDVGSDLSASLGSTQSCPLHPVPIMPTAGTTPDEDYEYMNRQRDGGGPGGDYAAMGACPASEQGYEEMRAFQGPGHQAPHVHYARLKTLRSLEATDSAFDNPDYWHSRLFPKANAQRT", "assay": "Inhibition of wild-type human partial length ERBB3 (G684 to A987 residues) expressed in mammalian expression system at 1 uM by Kinomescan method relative to control"}, "[6]": {"biological_target": "Fibroblast growth factor receptor 3 (Homo sapiens) (UniProt P22607)", "assay": "Inhibition of wild-type human partial length FGFR3 (R442 to S771 residues) expressed in bacterial expression system at 1 uM by Kinomescan method relative to control"}, "[7]": {"biological_target": "Insulin receptor-related protein (Homo sapiens) (UniProt P14616)", "assay": "Inhibition of wild-type human partial length INSRR (R950 to E1278 residues) expressed in bacterial expression system at 1 uM by Kinomescan method relative to control"}, "[8]": {"biological_target": "Tyrosine-protein kinase ITK/TSK (Homo sapiens) (UniProt Q08881)", "assay": "Inhibition of wild-type human partial length ITK (R335 to L620 residues) expressed in bacterial expression system at 1 uM by Kinomescan method relative to control"}, "[9]": {"biological_target": "Serine/threonine-protein kinase RIO1 (Homo sapiens) (UniProt Q9BRS2)", "assay": "Inhibition of wild-type human full length RIOK1 (M1 to K568 residues) expressed in bacterial expression system at 1 uM by Kinomescan method relative to control"}, "[10]": {"biological_target": "Ribosomal protein S6 kinase alpha-5 (Homo sapiens) (UniProt O75582)", "sequence (O75582 whole entry, looked up, the tested form may be a part)": "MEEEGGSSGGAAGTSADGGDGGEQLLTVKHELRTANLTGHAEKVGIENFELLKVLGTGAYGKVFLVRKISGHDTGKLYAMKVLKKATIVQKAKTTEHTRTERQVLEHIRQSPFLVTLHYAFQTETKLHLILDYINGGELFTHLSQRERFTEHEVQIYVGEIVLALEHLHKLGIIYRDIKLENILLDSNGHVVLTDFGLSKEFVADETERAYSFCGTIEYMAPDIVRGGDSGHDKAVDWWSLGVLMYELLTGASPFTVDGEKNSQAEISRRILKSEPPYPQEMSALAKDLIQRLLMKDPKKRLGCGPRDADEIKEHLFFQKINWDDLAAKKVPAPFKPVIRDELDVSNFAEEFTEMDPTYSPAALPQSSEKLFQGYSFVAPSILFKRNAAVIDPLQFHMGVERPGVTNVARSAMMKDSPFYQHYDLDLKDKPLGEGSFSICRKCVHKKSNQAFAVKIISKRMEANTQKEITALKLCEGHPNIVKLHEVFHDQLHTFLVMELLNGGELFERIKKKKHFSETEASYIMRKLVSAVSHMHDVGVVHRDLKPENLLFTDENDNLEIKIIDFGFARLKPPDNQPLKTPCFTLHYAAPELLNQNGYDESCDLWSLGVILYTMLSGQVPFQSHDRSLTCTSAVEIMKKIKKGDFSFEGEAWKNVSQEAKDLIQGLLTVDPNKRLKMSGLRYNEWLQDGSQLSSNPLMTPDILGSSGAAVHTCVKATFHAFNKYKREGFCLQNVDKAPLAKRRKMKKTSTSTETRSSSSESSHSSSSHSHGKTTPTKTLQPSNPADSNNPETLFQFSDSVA", "assay": "Inhibition of wild-type human partial length N-terminal RPS6KA5 kinase domain 1 expressed in bacterial expression system at 1 uM by Kinomescan method relative to control"}, "[11]": {"biological_target": "Non-receptor tyrosine-protein kinase TYK2 (Homo sapiens) (UniProt P29597)", "assay": "Inhibition of wild-type human partial length TYK2 JH1 catalytic domain (V877 to C1187 residues) expressed in mammalian expression system at 1 uM by Kinomescan method relative to control"}, "[12]": {"biological_target": "Phosphatidylinositol 3-kinase catalytic subunit type 3 (Homo sapiens) (UniProt Q8NEB9)", "assay": "Inhibition of wild-type human partial length VPS34 (S282 to H879 residues) expressed in mammalian expression system at 1 uM by Kinomescan method relative to control"}, "[13]": {"biological_target": "Wee1-like protein kinase 2 (Homo sapiens) (UniProt P0C1S8)", "sequence (P0C1S8 whole entry, looked up, the tested form may be a part)": "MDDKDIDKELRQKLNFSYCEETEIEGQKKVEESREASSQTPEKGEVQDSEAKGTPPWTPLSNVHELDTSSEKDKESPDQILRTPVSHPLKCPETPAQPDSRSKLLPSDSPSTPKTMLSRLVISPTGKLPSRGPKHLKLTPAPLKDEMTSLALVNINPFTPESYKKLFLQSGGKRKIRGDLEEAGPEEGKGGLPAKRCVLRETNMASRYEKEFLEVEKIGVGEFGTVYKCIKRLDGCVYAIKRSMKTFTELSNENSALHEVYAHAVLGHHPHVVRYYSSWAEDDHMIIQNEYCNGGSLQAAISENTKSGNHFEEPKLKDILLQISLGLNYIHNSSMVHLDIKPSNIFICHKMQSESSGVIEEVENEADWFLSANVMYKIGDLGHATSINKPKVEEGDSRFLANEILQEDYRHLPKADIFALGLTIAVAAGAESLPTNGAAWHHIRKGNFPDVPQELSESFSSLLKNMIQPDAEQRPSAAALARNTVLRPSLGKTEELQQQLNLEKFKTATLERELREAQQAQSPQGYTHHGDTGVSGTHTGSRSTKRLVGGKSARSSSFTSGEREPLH", "assay": "Inhibition of wild-type human partial length WEE2 (M204 to K492 residues) expressed in bacterial expression system at 1 uM by Kinomescan method relative to control"}, "[14]": {"assay": "Apparent permeability from apical to basolateral side in human Caco2 cells at 5 uM after 120 mins by LC-MS/MS analysis", "assay_type": "ADME, cell-based", "details": "Caco-2"}, "[15]": {"assay": "Terminal half-life in Sprague-Dawley rat at 1 mg/kg, iv", "assay_type": "ADME, organism-based", "details": "in vivo, read-out: beta t1/2 (converted)"}, "[16]": {"system": "Tyrosine-protein kinase ABL1 (Homo sapiens), P00519 [M351T]", "assay": "Inhibition of human phosphorylated ABL1 M351T mutant (S229 to K512 residues) expressed in mammalian expression system at 10 uM by Kinomescan method relative to control"}, "[17]": {"biological_target": "Aurora kinase C (Homo sapiens) (UniProt Q9UQB9)", "assay": "Inhibition of wild-type human full length AURKC (M1 to S275 residues) expressed in bacterial expression system at 10 uM by Kinomescan method relative to control"}, "[18]": {"biological_target": "Calcium/calmodulin-dependent protein kinase type II subunit delta (Homo sapiens) (UniProt Q13557)", "assay": "Inhibition of wild-type human partial length CAMK2D (M1 to E329 residues) expressed in bacterial expression system at 10 uM by Kinomescan method relative to control"}, "[19]": {"biological_target": "Cyclin-dependent kinase 4 (Homo sapiens) (UniProt P11802)", "assay": "Inhibition of wild-type human full length CDK4 (M1 to E303 residues) expressed in mammalian expression system at 10 uM by Kinomescan method relative to control"}, "[20]": {"biological_target": "Casein kinase I isoform alpha (Homo sapiens) (UniProt P48729)", "assay": "Inhibition of wild-type human partial length CSNK1A1 (M1 to L450 residues) expressed in mammalian expression system at 10 uM by Kinomescan method relative to control"}, "[21]": {"biological_target": "Discoidin domain-containing receptor 2 (Homo sapiens) (UniProt Q16832)", "assay": "Inhibition of wild-type human partial length DDR2 (V555 to E855 residues) expressed in mammalian expression system at 10 uM by Kinomescan method relative to control"}, "[22]": {"system": "Epidermal growth factor receptor (Homo sapiens), P00533 [UNDEFINED MUTATION]", "sequence (P00533 whole entry, looked up, stated change not applied)": "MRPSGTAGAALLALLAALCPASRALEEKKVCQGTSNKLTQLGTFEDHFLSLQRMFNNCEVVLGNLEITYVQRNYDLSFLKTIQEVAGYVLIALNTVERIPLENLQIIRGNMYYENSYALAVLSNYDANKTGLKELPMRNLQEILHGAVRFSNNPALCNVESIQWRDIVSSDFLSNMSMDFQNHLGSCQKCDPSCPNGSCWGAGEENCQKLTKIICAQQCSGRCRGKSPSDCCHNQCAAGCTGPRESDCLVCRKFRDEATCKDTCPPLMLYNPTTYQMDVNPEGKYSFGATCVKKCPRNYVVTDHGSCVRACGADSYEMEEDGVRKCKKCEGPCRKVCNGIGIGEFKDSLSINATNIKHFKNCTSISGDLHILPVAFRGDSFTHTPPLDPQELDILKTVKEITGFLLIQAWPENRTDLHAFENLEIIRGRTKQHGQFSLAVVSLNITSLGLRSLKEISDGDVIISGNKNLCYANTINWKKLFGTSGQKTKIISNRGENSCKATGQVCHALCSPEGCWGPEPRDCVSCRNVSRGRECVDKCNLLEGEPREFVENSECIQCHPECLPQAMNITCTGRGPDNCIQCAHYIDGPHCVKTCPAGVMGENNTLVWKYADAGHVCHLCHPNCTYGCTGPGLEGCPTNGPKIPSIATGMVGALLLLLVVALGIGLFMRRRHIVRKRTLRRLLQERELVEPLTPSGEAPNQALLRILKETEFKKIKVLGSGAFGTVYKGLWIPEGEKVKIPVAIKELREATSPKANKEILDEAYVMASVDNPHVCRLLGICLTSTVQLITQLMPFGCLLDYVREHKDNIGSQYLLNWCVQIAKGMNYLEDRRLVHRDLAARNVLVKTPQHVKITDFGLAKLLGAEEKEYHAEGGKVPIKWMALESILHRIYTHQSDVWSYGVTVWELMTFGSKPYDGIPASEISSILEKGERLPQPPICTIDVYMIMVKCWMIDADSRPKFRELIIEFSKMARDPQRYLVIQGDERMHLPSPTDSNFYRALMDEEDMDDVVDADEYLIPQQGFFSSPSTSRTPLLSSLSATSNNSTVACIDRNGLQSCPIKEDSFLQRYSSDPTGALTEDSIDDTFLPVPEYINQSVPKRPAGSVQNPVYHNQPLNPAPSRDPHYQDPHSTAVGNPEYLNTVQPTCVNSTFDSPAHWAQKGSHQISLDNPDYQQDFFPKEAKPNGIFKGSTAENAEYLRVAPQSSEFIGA", "assay": "Inhibition of human partial length EGFR L747-S752del/P753S mutant expressed in bacterial expression system at 10 uM by Kinomescan method relative to control"}, "[23]": {"biological_target": "Serine/threonine-protein kinase/endoribonuclease IRE1 (Homo sapiens) (UniProt O75460)", "assay": "Inhibition of wild-type human partial length ERN1 (S551 to E852 residues) expressed in mammalian expression system at 10 uM by Kinomescan method relative to control"}, "[24]": {"biological_target": "Tyrosine-protein kinase Fgr (Homo sapiens) (UniProt P09769)", "assay": "Inhibition of wild-type human partial length FGR (L233 to T529 residues) expressed in bacterial expression system at 10 uM by Kinomescan method relative to control"}, "[25]": {"biological_target": "MAP kinase-interacting serine/threonine-protein kinase 1 (Homo sapiens) (UniProt Q9BUB5)", "assay": "Inhibition of wild-type human full length MKNK1 (M1 to L424 residues) expressed in mammalian expression system at 10 uM by Kinomescan method relative to control"}, "[26]": {"biological_target": "Ribosomal protein S6 kinase alpha-4 (Homo sapiens) (UniProt O75676)", "assay": "Inhibition of wild-type human partial length N-terminal RPS6KA4 kinase domain 1 expressed in bacterial expression system at 10 uM by Kinomescan method relative to control"}, "[27]": {"biological_target": "Tyrosine-protein kinase receptor Tie-1 (Homo sapiens) (UniProt P35590)", "sequence (P35590 whole entry, the tested form may be a part)": "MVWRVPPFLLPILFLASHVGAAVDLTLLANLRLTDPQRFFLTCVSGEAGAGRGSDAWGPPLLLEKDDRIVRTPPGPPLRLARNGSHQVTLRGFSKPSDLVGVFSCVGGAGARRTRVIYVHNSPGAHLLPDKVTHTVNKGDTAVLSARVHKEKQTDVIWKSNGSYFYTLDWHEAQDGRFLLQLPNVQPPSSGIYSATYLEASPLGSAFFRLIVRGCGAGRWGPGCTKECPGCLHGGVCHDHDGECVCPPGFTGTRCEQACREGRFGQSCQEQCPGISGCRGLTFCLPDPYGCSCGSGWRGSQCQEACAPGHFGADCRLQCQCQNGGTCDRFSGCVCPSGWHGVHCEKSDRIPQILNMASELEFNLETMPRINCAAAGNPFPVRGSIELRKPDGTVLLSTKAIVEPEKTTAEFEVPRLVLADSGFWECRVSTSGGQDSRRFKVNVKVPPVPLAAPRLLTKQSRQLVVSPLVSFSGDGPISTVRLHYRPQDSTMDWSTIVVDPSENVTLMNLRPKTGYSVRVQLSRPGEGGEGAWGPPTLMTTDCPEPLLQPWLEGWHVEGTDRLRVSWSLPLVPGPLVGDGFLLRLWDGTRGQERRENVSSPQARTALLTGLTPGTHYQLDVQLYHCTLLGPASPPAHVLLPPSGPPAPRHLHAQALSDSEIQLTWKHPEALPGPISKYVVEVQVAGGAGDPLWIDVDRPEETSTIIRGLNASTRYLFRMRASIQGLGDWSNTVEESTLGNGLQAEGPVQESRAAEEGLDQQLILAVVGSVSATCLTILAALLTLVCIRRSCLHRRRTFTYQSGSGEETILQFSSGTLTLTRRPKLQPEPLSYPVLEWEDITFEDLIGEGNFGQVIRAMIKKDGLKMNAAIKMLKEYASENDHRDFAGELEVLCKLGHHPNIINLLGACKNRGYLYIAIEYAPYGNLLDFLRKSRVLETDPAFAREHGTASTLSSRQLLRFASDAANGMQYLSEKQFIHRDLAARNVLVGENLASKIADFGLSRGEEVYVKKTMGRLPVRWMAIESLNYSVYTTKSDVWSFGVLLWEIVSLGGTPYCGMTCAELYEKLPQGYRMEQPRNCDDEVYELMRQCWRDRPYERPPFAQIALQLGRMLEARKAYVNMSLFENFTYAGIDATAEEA", "assay": "Inhibition of wild-type human partial length TIE1 (T819 to A1138 residues) expressed in bacterial expression system at 10 uM by Kinomescan method relative to control"}, "[28]": {"biological_target": "Tyrosine-protein kinase receptor TYRO3 (Homo sapiens) (UniProt Q06418)", "assay": "Inhibition of wild-type human partial length TYRO3 (S497 to T814 residues) expressed in bacterial expression system at 10 uM by Kinomescan method relative to control"}}}
{"compound": "O=C(Nc1cccc([C@@H]2CN(c3ncnc4[nH]ccc34)CCN2CCO)c1)Nc1c(F)cccc1N1CCCC1", "values": [{"measurement": "inhibition", "setting": "[1]", "result": 100, "unit": "%"}, {"measurement": "inhibition", "setting": "[2]", "result": 98, "unit": "%"}, {"measurement": "inhibition", "setting": "[3]", "result": 100, "unit": "%"}, {"measurement": "inhibition", "setting": "[4]", "result": 100, "unit": "%"}, {"measurement": "inhibition", "setting": "[5]", "result": 74, "unit": "%"}, {"measurement": "inhibition", "setting": "[6]", "result": 83, "unit": "%"}, {"measurement": "inhibition", "setting": "[7]", "result": 100, "unit": "%"}, {"measurement": "inhibition", "setting": "[8]", "result": 0.8, "unit": "%"}, {"measurement": "inhibition", "setting": "[9]", "result": 33, "unit": "%"}, {"measurement": "inhibition", "setting": "[10]", "result": 99, "unit": "%"}, {"measurement": "inhibition", "setting": "[11]", "result": 0, "unit": "%"}, {"measurement": "inhibition", "setting": "[12]", "result": 100, "unit": "%"}, {"measurement": "inhibition", "setting": "[13]", "result": 93, "unit": "%"}, {"measurement": "Papp A→B at 2 h, 5 µM", "setting": "[14]", "result": 4, "unit": "×10⁻⁶ cm/s"}, {"measurement": "half-life", "setting": "[15]", "result": 2.5, "unit": "h"}]}
{"compound": "O=C(Nc1cccc([C@H]2CCCN(c3ncnc4[nH]ccc34)C2)c1)Nc1ccccc1N1CCCC1", "values": [{"measurement": "inhibition", "setting": "[16]", "result": 71, "unit": "%"}, {"measurement": "inhibition", "setting": "[17]", "result": 4.3, "unit": "%"}, {"measurement": "inhibition", "setting": "[18]", "result": 100, "unit": "%"}, {"measurement": "inhibition", "setting": "[19]", "result": 100, "unit": "%"}, {"measurement": "inhibition", "setting": "[20]", "result": 62, "unit": "%"}, {"measurement": "inhibition", "setting": "[21]", "result": 0.55, "unit": "%"}, {"measurement": "inhibition", "setting": "[22]", "result": 87, "unit": "%"}, {"measurement": "inhibition", "setting": "[23]", "result": 45, "unit": "%"}, {"measurement": "inhibition", "setting": "[24]", "result": 62, "unit": "%"}, {"measurement": "inhibition", "setting": "[25]", "result": 55, "unit": "%"}, {"measurement": "inhibition", "setting": "[26]", "result": 77, "unit": "%"}, {"measurement": "inhibition", "setting": "[27]", "result": 45, "unit": "%"}, {"measurement": "inhibition", "setting": "[28]", "result": 100, "unit": "%"}]}
